In the NIST ThermoML archive (doi:10.1016/j.jct.2018.11.013):
± gives the expanded uncertainty stated by the source.

Assay: Boiling temperature at pressure P
Conditions: 101.3 kPa; Liquid; Ebulliometric method (Recirculating still)

Structure (SMILES)	Boiling temperature at pressure P
CCOCCO [2-ethoxyethan-1-ol]	135.04 ± 0.71 °C
CCCCOC(C)=O [butyl ethanoate]	126.11 ± 0.71 °C
CC(C)OC(C)C [diisopropyl ether]	68.62 ± 0.71 °C
CC(C)O [propan-2-ol]	82.12 ± 0.71 °C
